Reference: US9637523B2 (priority 2012, dated 2017)
Entries after “also recorded” stand apart in the source; their conditions may differ.

How the values were obtained:
avian IAV FPV = format: cell-based
human IAV PR8 = format: cell-based
[1] = test system: polymerase subunits PB1, PB2, PA and NP of the avian IAV FPV-Rostock; format: cell-based, A/FPV/Rostock/34 (H7N1)
[2] = test system: PB1, NS1, NP and M1 of IAV; format: cell-based

SMILES: Cc1ccc(NC(=O)c2ccc(CN3CCN(C)CC3)cc2)cc1Nc1nccc(-c2cccnc2)n1 [Imatinib]
- replication (progeny virus yields) of avian IAV FPV (avian IAV FPV): interferes with replication properties of the avian IAV FPV in a concentration dependent manner; also recorded: only efficient upon low dose infection
- replication (progeny virus yields) of human IAV PR8 (human IAV PR8): absolutely independent of the tyrosine kinase activity of c-Abl
- viral polymerase activity (luciferase) [1]: neither detect an impact
- viral protein expression [2]: neither detect an impact
